Values after ≈ are worked out from the molar mass of the structure shown. Like-named read-outs stand apart in the source and are kept apart here.
How the values were obtained:
Mycobacterium avium = assay: MIC on Mycobacterium avium with BACTEC; format: cell-based; conditions: for MIC: Mycobacterium avium, BACTEC
[1] = system: Mycobacterium tuberculosis H37Rv; assay: MIC determination by MABA (Microplate Alamar Blue Assay); format: cell-based; conditions: for MIC: Mycobacterium tuberculosis, H37RV
Description: Following this, to determine the actual minimum inhibitory concentration in the second phase, both of the compounds were retested to the lowest concentration of Mycobacterium tuberculosis H37Rv with the technique of MABA (Microplate Alamar Blue Assay) and MIC value for the 1st compound was determined <0.03 µg/ml while this value was determined <0.05 µg/ml for the second compound. The result of Rifampicin subjected to the assay under the same conditions was determined as 0.25 µg/ml.

[2] = format: physicochemical
Description: In the assays carried out with the solubility enhancing Polysorbate 80 (Tween 80) in order to ensure water solubility of Compound 2, firstly solubility of the compound was determined in an aqueous solution prepared with a mass ratio of 1:6 (compound: Tween 80) and then the same mass ratio was studied with different solvents (ethanol, methanol) and different drying methods (evaporation, evaporation+lyophilization). In light of the results of solubility obtained and presented below Table 2, it has determined that the solution of the compound that was prepared with the Tween 80 in methanol medium had the highest solubility rate after evaporation.
Details of the method where high solubility was determined with Polysorbate 80 (Tween 80) are presented below: After the substances at the mass ratio of 1:6 (compound: Tween 80) were dissolved in 7 ml methanol, they were evaporated in a rotating evaporator at 175 RPM, at a temperature of 40°C and a vacuum of […]. The thin film obtained was firstly blended with vortex adding 3 ml water, and then was left to rest for 15 minutes in an ultrasonic bath. The mixture obtained was filtered out with a plastic filter having a pore diameter of 0.2 µm and afterward solubility ratio of the mixture was determined with HPLC.

[3] = format: physicochemical; remark: listed apart in the source
Description: To ensure that Compound 2 is dissolved in water, in the assays carried out with solubility enhancing cyclodextrin molecules, different cyclodextrins [hydroxypropyl beta-cyclodextrin (HP-β-CD), sulfobutyl ether beta-cyclodextrin (SBE-β-CD)], different methods [kneading, evaporation, lyophilization], different solvents (dimethyl sulfoxide, methanol, ethanol) were studied at the molar ratio of 1: 1 compound: cyclodextrin.

[4] = In vivo animal toxicity tests (maximum tolerable dose)
[5] = system: Mycobacterium tuberculosis H37Rv (ATCC27294); format: cell-based
[6] = first value of the cell (outside parentheses), MABA, read-out: MIC H37Rv
[7] = first value of the cell (outside parentheses), MABA
[8] = value printed in parentheses after the bound <12.5, read-out: MIC H37Rv (µg/ml), value in parentheses
[9] = read-out: MIC H37Rv (µg/ml), value in parentheses

SMILES	MIC (Mycobacterium avium) [µg/mL]	MIC [1, 6] [µg/mL]	MIC [1, 8] [µg/mL]	other results
COc1ccc(O)c(-c2csc(NN=C(C)c3ccc4c(c3)CCC4)n2)c1 [Compound 2, 2-[2-(2-(1-(2,3-dihydro-1H-inden-5-yl)ethylidene)hydrazinyl)thiazole-4-yl]-4-methoxy phenol]	0.39 (≈ 1.03 µM)	< 0.05		activity on Mycobacterium avium (Mycobacterium avium): exhibited activity; MIC H37Rv [1, 7]: <0.05 µg/mL; Solubility ratio in the aqueous solution [2]: Solubility ratio in the aqueous solution prepared with the mass ratio of 1:6 (compound: Tween 80) 42,44 µg/ml; The ratio of water solubility [2]: 58,80 µg/ml; The ratio of water solubility ([2]; 15 min): 70,05 µg/ml; increase in solubility [3]: any significant increase in solubility was not observed; dissolved in water at the ratio of ([3]; HP-β-CD, molar ratio 1:1, evaporation method within ethanol): 0.59 µg/mL
COc1ccc(-c2csc(NN=C(C)c3ccc4c(c3)CCC4)n2)c(O)c1 [Compound 8, 2-[2-(2-(1-(2,3-Dihydro-1H-inden-5-yl)ethylidene)hydrazinyl)thiazol-4-yl]-5-methoxyphenol]		< 12.5		
CC(=NNc1nc(-c2ccc(Cl)cc2)cs1)c1ccc2c(c1)CCC2 [Compound 3, 4-(4-Chlorophenyl)-2-[2-(1-(2,3-dihydro-1H-inden-5yl)ethylidene)hydrazinyl] thiazole]	0.78 (≈ 2.12 µM)	< 12.5	0.39 (≈ 1.06 µM)	
CC(=NNc1nc(-c2cc(Cl)ccc2O)cs1)c1ccc2c(c1)CCC2 [Compound 5, 4-Chloro-2-[2-(2-(1-(2,3-dihydro-1H-inden-5-yl)ethylidene)hydrazinyl)thiazol-4-yl]phenol]		< 12.5		
CC(=NNc1nc(-c2ccccc2O)cs1)c1ccc2c(c1)CCC2 [Compound 4, 2-[2-(2-(1-(2,3-Dihydro-1H-inden-5-yl)ethylidene)hydrazinyl)thiazol-4-yl]phenol]	0.78 (≈ 2.23 µM)	< 12.5	0.2 (≈ 0.572 µM)	
CC(=NNc1nc(-c2ccccc2)cs1)c1ccc2c(c1)CCC2 [Compound 11, 2-[2-(1-(2,3-Dihydro-1H-inden-5-yl)ethylidene)hydrazinyl]-4-phenylthiazole]	12.5 (≈ 37.5 µM)			MIC ([1]; read-out: MIC H37Rv (µg/ml)): < 12.5 µg/mL; MIC [1, 9]: 3.13 µg/mL (≈ 9.39 µM)
CC(=NNC(N)=S)c1ccc2c(c1)CCC2 [Compound 1, 2-[1-(2,3-dihydro-1H-inden-5-yl)ethylidene]hydrazinecarbothioamide]		< 0.03		MIC H37Rv [1, 7]: <0.03 µg/mL; maximum tolerable dose [4]: 1000 mg/kg
CC(=NNc1nc(-c2ccc(C)cc2O)cs1)c1ccc2c(c1)CCC2 [Compound 9, 2-[2-(2-(1-(2,3-Dihydro-1H-inden-5-yl)ethylidene)hydrazinyl)thiazol-4-yl]-5-methylphenol]	0.1 (≈ 0.275 µM)	< 12.5	0.05 (≈ 0.138 µM)	
C/C(=N\Nc1nc(-c2ccc([N+](=O)[O-])cc2)cs1)c1ccc2c(c1)CCC2 [Compound 10]	3.13 (≈ 8.27 µM)			MIC ([1]; read-out: MIC H37Rv (µg/ml)): < 12.5 µg/mL; MIC [1, 9]: 1.56 µg/mL (≈ 4.12 µM); Primary screening % inhibition [5]: 93%
C/C(=N\Nc1nc(-c2ccc(C)cc2)cs1)c1ccc2c(c1)CCC2 [Compound 7]	0.2 (≈ 0.576 µM)			MIC ([1]; read-out: MIC H37Rv (µg/ml)): < 12.5 µg/mL; MIC [1, 9]: 0.2 µg/mL (≈ 0.576 µM); Primary screening % inhibition [5]: 94%
CC(=NNc1nc(-c2ccc(Br)cc2)cs1)c1ccc2c(c1)CCC2 [Compound 6, 4-(4-Bromophenyl)-2-[2-(1-(2,3-dihydro-1H-inden-5-yl)ethylidene)hydrazinyl] thiazole]	1.56 (≈ 3.78 µM)	< 12.5	0.39 (≈ 0.946 µM)	
CO[C@H]1/C=C/O[C@@]2(C)Oc3c(C)c(O)c4c(O)c(c(/C=N/N5CCN(C)CC5)c(O)c4c3C2=O)NC(=O)/C(C)=C\C=C\[C@H](C)[C@H](O)[C@@H](C)[C@@H](O)[C@@H](C)[C@H](OC(C)=O)[C@@H]1C [Rifampicin, reference compound]		0.25 (≈ 0.304 µM)		

— patent EP3958860B1, “COMPOUNDS EXHIBITING ANTI-TUBERCULOSIS ACTIVITY” (priority 2019, dated 2021)
